Data: patent US9757350B2, “Small molecule inhibitors of replication protein A that also act synergistically with cisplatin” (Indiana University Research and Technology Corp., priority 2010, dated 2017)
Like-named read-outs stand apart in the source and are kept apart here.

Columns and labels:
Type in all cases: cell-based
H1299 cells = experiment: CCK-8 cell viability assay, H1299
Experimental: Referring now to FIG. 13A. Cell Viability and Apoptosis of Ovarian and p53 null Lung Cancer Cell Lines. A) Ovarian cancer cell line A2780 and the p53 null lung cancer cell line, H1299, were treated with log dosing of MCI13E and viability analyzed via CCK-8 metabolic assay as described in Methods. Data is presented as cell survival which was determined as a percent of the untreated control cells and represents the average and standard deviation of triplicate experiments Referring now to FIG. 13B.
Ovarian cancer cell line, A2780, cells are difficult to use for crystal violet analysis due to their enhanced sensitivity to treatment. Therefore, the cell counting kit-8 (CCK) was used to determine the viability of A2780 cells in addition to the p53 null lung cancer cell line H1299, following a 24 hour treatment with log dosing of SMI. Cells were plated (1×10^5) in 24-well dishes and treated with inhibitor after 24 hours. After treatment media was aspirated and 1 ml of DMEM was added in addition to 100 μL of CCK-8 solution. Absorbance at 450 nm was measured over 4 hours in a SpectraMax M5 plate reader and values are presented as the percent untreated control at the two hour time point for three separate plate replicates each containing three assays per plate.

A549 cells = experiment: Combination index study with cisplatin (Chou-Talalay), crystal violet; conditions: for Interaction with cisplatin, sequential treatment: A549, cisplatin 24 h, then SMI 24 h
Experimental: Synergy with cisplatin—Analyses thus far indicate that inhibition of RPA is effective in eliciting effects consistent with inhibition of RPAs role in cell cycle progression and DNA replication. To assess if SMI treatment impacts RPAs role in DNA repair, how MCI13E or MCI13F treatment influences cellular sensitivity to cisplatin was assessed. […] Cisplatin-induced DNA damage is primarily repaired via NER and homologous recombination. […] Initially, a concurrent approach, similar to that described for another RPA SMI, TDRL-505 (1) was used. Briefly, A549 cells were treated for 48 hours with MCI13E, cisplatin, or combination treatment, with viability determined via crystal violet staining. […] Next, a sequential treatment protocol was used, first treating cells with cisplatin for 24 hours, then adding the SMI and incubating for an additional 24 hours.
Combination Index—Studies Combination index studies, performed with combination SMI and cisplatin treatment, were used to determine the level of synergy or antagonism between the two compounds. Referring now to FIG. 19A, a schematic illustrating Sequential treatment with cisplatin and MCI13E, and FIG. 19B, a schematic illustrating concurrent treatment with cisplatin and MCI13E. Cells received the same concentration of cisplatin or MCI13E but the time the cells were treated with cisplatin varied whereas treatment time with MCI remained the same between the two treatment methods.
Briefly, A549 cells were plated as described above in 24-well dishes (5×10^4 cells per well) and treated either concurrently or sequentially with single agent cisplatin or MCI treatment or with combination treatments. […] Following 48 hours of total treatment cells were analyzed for viability using the crystal violet assay described above and combination index values were calculated based on the Chou and Talalay method (15) as we have previously described (1,23).

p53 = experiment: Western blot of p53 serine-15 phosphorylation; conditions: A549, western blot
Experimental: Real-Time PCR—A549 cells were plated in 10 cm dishes at 1.5×10^6, allowed to adhere, and treated for 24-48 hours with cisplatin or SMIs (5 μM). Referring now to FIG. 16B, Western blot of cells treated sequentially. For sequential treatment, A549 cells were exposed to cisplatin for 24 hours followed by the addition of SMIs for another 24 hours as above. Referring now to FIG. 16A, A549 cells were treated sequentially or concurrently with cisplatin (5 μM) and MCI13E or MCI13F for 24 total hours. Lysates were probed for p53-ser15-phosphorylation or phosphorylated-ATM. GAPDH was probed as a loading control. Concurrently treated cells were incubated simultaneously with both cisplatin and MCIs for 24 hours. RNA was extracted using RNeasy minikit (Qiagen, Germantown, Md.) per manufacturer's protocol. cDNA was generated using Applied Biosystem's (ABI) High Capacity RNA-to-cDNA kit. Validated gene primer/probe sets, also from ABI, were used for Quantitative Real Time-PCR. ABI's ΔΔCT Relative Quantification methodology was used for the analyses (applied Biosystems). Data were normalized to the housekeeping gene GAPDH and calibrated to the mock treated samples. Results presented are the average of two separate cell treatments/RNA isolations with duplicate Taqman Assays per RNA sample set. […]

p21 = experiment: Quantitative real-time PCR of p21 mRNA; conditions: A549, versus untreated control
Experimental: Real-Time PCR—A549 cells were plated in 10 cm dishes at 1.5×10^6, allowed to adhere, and treated for 24-48 hours with cisplatin or SMIs (5 μM). Referring now to FIG. 16B, Western blot of cells treated sequentially. For sequential treatment, A549 cells were exposed to cisplatin for 24 hours followed by the addition of SMIs for another 24 hours as above. Referring now to FIG. 16A, A549 cells were treated sequentially or concurrently with cisplatin (5 μM) and MCI13E or MCI13F for 24 total hours. Lysates were probed for p53-ser15-phosphorylation or phosphorylated-ATM. GAPDH was probed as a loading control. Concurrently treated cells were incubated simultaneously with both cisplatin and MCIs for 24 hours. RNA was extracted using RNeasy minikit (Qiagen, Germantown, Md.) per manufacturer's protocol. cDNA was generated using Applied Biosystem's (ABI) High Capacity RNA-to-cDNA kit. Validated gene primer/probe sets, also from ABI, were used for Quantitative Real Time-PCR. ABI's ΔΔCT Relative Quantification methodology was used for the analyses (applied Biosystems). Data were normalized to the housekeeping gene GAPDH and calibrated to the mock treated samples. Results presented are the average of two separate cell treatments/RNA isolations with duplicate Taqman Assays per RNA sample set.
Referring now to FIG. 15A. Plot of Quantitative Real Time PCR analyses of mRNA expression changes of A549 cells treated with MCI13E, MCI13F and Cisplatin. Data represents the average of four separate Q-RT PCR Assays. Genes of interest were normalized to GAPDH transcript levels, and are presented as fold changes relative to untreated cell samples. Cisplatin treatment increases transcription of DDB2 (A). Referring now to FIG. 15B. Bar graph of P21/GAPDH measured in cells subjected to different treatment schemes. Referring now to FIG. 15C. Bar graph of XPC/GAPDH measured under different treatment regimes XPC Concurrent MCI/Cisplatin treated cells show a decrease in gene transcription when compared to cells treated with Cisplatin alone (24 hour).

[1] = H1299, 24 hours after exposing the cells, read-out: IC50, cell viability
[2] = H1299, read-out: IC50, cell viability (text to Table 3)

SMILES | IC50 (H1299 cells; H1299 (p53 null), 24 hours of treatment, CCK-8, read-out: IC50, cell viability) [nM] | IC50 (H1299 cells; [1]) [nM] | IC50 (H1299 cells; [2]) [nM] | Interaction with cisplatin, concurrent treatment (A549 cells; A549, 48 hours together) | Interaction with cisplatin, sequential treatment (A549 cells) | p53 serine-15 phosphorylation, single agent (p53) | p21 mRNA expression, single agent (p21)
CC1(C)C2CCC1(C)C(OC(=O)CBr)C2 (racemic) [MCI13E, (+/−)-Isobornyl bromoacetate] | ~4000 | 500 | ~500 | antagonistic effect | synergizing with cisplatin at higher dosing concentrations | minimal single-agent effects on p53 phosphorylation | only slightly increases the expression level of p21
CC1(C)C2CCC1(C)C(OC(=O)CI)C2 (racemic) [MCI13F, (+/−)-Isobornyl iodoacetate] |  | 500 | ~500 |  | synergy with cisplatin at all tested concentrations | minimal single-agent effects on p53 phosphorylation | only slightly increases the expression level of p21
